Consider 17 molecules from patent publication US4731373A, “Glycerin derivatives and inhibition of blood PAF” (Hoffman-La Roche Inc., priority 1983, dated 1988).

For this test, the system named is blood platelet activating factor (PAF). The test can be described thus: Inhibition of PAF-induced platelet aggregation in platelet-rich plasma (aggregometer). It counts as cell-based. The conditions noted are these: rabbit platelet-rich plasma, 37° C., stirring; test substance added 2 minutes before PAF (4 nM, sub-maximum dosage); read-out: IC50 (concentration of the test substance which reduces to a half the aggregation of the blood platelets brought about by PAF). As to the method: The aggregation of the blood platelets was measured with the aid of an aggregometer at 37° C. while stirring. […] The IC50 value (in μM) given in the following Table corresponds to that concentration of the test substance which reduces to a half the aggregation of the blood platelets brought about by PAF.
As to “1-[3-[[[(RS)-2-(1-methoxyformamido)-3-(octadecyloxy)propoxy]carbonyl]oxy]propyl]pyridinium chloride [Example 16]”, the IC50 stood at 1500 nM.
On to `CCCCCCCCCCCCCCCCCCNC(=O)OCC(COC(=O)NCC[n+]1ccccc1)OC` (racemic) [Example 7a, 1-[2-[1-[(RS)-2-methoxy-3-(octadecylcarbamoyloxy)propoxy]formamido]ethyl]pyridinium chloride], for which the IC50 was 2000 nM.
`CCCCCCCCCCCCCCCCCCNC(=O)OCC(COC(=O)OCC[n+]1ccccc1)OC` (racemic) [Example 7b, 1-[2-[[[(RS)-2-methoxy-3-[(octadecylcarbamoyl)oxy]propoxy]carbonyl]oxy]ethyl]pyridinium bromide]: the IC50 came to 1600 nM.
In the case of `CCCCCCCCCCCCCCCCCCOCC(COC(=O)CC[n+]1ccccc1)NC(=O)OC` (racemic) [Example 15], the IC50 stood at 3000 nM.
The result for `CCCCCCCCCCCCCCCCCCNC(=O)OCC(COC(=O)CCC[n+]1ccsc1)OC` (racemic) [Example 20b, 3-[3-[[(RS)-2-methoxy-3-[(octadecylcarbamoyl)oxy]propoxy]carbonyl]propyl]thiazolium chloride] reads 250 nM.
In the case of `CCCCCCCCCCCCCCCCCCNC(=O)OCC(COC(=O)CCC[n+]1ccccc1)OC(=O)OC` (racemic) [Example 21a, 1-[3-[[(RS)-2-[(methoxycarbonyl)oxy]-3-[(octadecylcarbamoyl)oxy]propoxy]carbonyl]propyl]pyridinium chloride], the IC50 amounted to 150 nM.
Consider `CCCCCCCCCCCCCCCCCCNC(=O)OCC(COC(=O)CCC[n+]1ccsc1)NC(=O)OC` (racemic) [Example 24, 1-[3-[[(RS)-2-(1-methoxyformamido)-3-(octadecylcarbamoyloxy)propoxy]carbonyl]propyl]thiazolium chloride], for which the IC50 is 150 nM.
Regarding `CCCCCCCCCCCCCCCCCCOC(=O)NCC(COC(=O)CCC[n+]1ccccc1)OC(=O)OC` (racemic) [Example 26, 1-[3-[[(RS)-2-[(methoxycarbonyl)oxy[-3-[1-(octadecyloxy)-formamido]propoxy]carbonyl]propyl]pyridinium chloride], the IC50 stood at 400 nM.
For the molecule `CCCCCCCCCCCCCCCCCCOC[C@H](COC(=O)CCC[n+]1ccccc1)OC(=O)NC` [Example 1, 1-[3-[[(R)-2-[(methylcarbamoyl)oxy]-3-(octadecyloxy)propoxy]carbonyl]-propyl]pyridinium chloride], the IC50 turned out to be 1600 nM.
Take `CCCCCCCCCCCCCCCCCCOC[C@H](COC(=O)OCC[n+]1ccccc1)OC(=O)NC` [Example 3, 1-[2-[[[(R)-2-[(methylcarbamoyl)oxy]-3-(octadecyloxy)propoxy]carbonyl]oxy]ethyl]pyridinium bromide]: the IC50 is 3000 nM.
With `CCCCCCCCCCCCCCCCCCOC[C@H](COC(=O)OCC[n+]1ccccc1)OC(=O)OC` [Example 10, 1-[2-[[(R)-2-[(methoxycarbonyl)oxy]-3-(octadecyloxy)propoxy]carbonyl]oxy]ethyl]pyridinium bromide] the figure was 3000 nM; with `CCCCCCCCCCCCCCCCCCNC(=O)OC[C@H](COC(=O)OCC[n+]1ccccc1)OC(=O)OC` [Example 11, 1-[2-[[[(R)-2-[(methoxycarbonyl)oxy]-3-(octadecylcarbamoyl)oxy]propoxy]carbonyl]oxy]ethyl]pyridinium bromide], 600 nM.
On to `CCCCCCCCCCCCCCCCCCOC[C@H](COC(=O)OCC[n+]1ccsc1)OC(=O)OC` [Example 12, 3-[2-[[[(R)-2-[(methoxycarbonyl)oxy]-3-(octadecyloxy)propoxy]carbonyl]oxy]ethyl]thiazolium bromide], for which the IC50 is 2000 nM.
With `CCCCCCCCCCCCCCCCCCNC(=O)OC[C@@H](COC(=O)CCC[n+]1ccccc1)OC(=O)OC` [Example 21b, 1-[3-[[(R)-2-[(methoxycarbonyl)oxy]-3-[(octadecylcarbamoyl)oxy]propoxy]carbonyl]propyl]pyridinium chloride], the IC50 was 200 nM.
For the molecule `CCCCCCCCCCCCCCCCCCNC(=O)OC[C@H](COC(=O)CCC[n+]1ccccc1)OC(=O)OC` [Example 21d, 1-[3-[[(S)-2-[(methoxycarbonyl)oxy]-3-[(octadecylcarbamoyl)oxy]propoxy]carbonyl]propyl]pyridinium iodide], the IC50 was 200 nM.
As for `CCCCCCCCCCCCCCCCCCNC(=O)OC[C@@H](COC(=O)CCC[n+]1ccsc1)OC(=O)OC` [Example 21e, 3-[3-[[(R)-2-[(methoxycarbonyl)oxy]-3-[(octadecylcarbamoyl)oxy]propoxy]carbonyl]propyl]thiazolium iodide], the IC50 stood at 40 nM.
The result for `CCCCCCCCCCCCCCCCCCNC(=O)OC[C@H](COC(=O)CCC[n+]1ccsc1)OC(=O)OC` [Example 21f, 3-[3-[[(S)-2-[(methoxycarbonyl)oxy]-3-[(octadecylcarbamoyl)oxy]propoxy]carbonyl]propyl]thiazolium iodide] reads 60 nM.
